# Measurements published in patent publication US20160000883A1, “COMBINATION OF ACYLATED GLUCAGON ANALOGUES WITH INSULIN ANALOGUES” (ZEALAND PHARMA A/S, priority 2011, published 2016).
# Numbered stars: 1 amine (or outer) side, 2 acyl side, 3 side chain; on linkers, the order of the positions; unused ones are H or OH. Square brackets hold non-standard residues; d marks the D form. Side chains are listed from the residue outwards. * marks the point of attachment. γGlu = O=C(O)[C@H](CCC(=O)[*:2])N[*:1]; Palmitoyl = CCCCCCCCCCCCCCCC(=O)*; Aib = CC(C)(N)C(=O)O
# What was measured:
# [1] = system: db/db (BKS.Cg-m+/+Lepr^db/J) female mice; test: 21-day s.c. treatment of db/db mice: body weight, food and water intake; format: in vivo; conditions: 21 days, bi-daily s.c., Lantus 3 U, Levemir 6 U, Compound X 10 nmol/kg, vs. vehicle (FIG. 1)
# Source text: Eighty (80) db/db (BKS.Cg-m+/+Lepr^db/J) female mice aged 7 weeks were obtained from Charles River, US. The mice were acclimatized in their new environment and allowed free access to normal chow (Altromin 1324, Brogaarden A/S, Gentofte, Denmark) and domestic quality tap water added citric acid to pH ˜3.6, except as indicated. The mice were group-housed with 3-4 mice per cage in a light-, temperature-, and humidity-controlled room (12-hour light: 12-hour dark cycle, with lights on at 06.00 AM to 06.00 PM hour; 24° C.; 50% relative humidity).
# Prior to treatment, in weeks 1-3, a tail-blood sample for the determination of blood glucose was obtained on non-fasted animals to determine diabetic state and to identify outliers, which were excluded. The inclusion criteria of BG>16 mM glucose was applied.
# Stratification of the animals was based on HbA1c levels (primary) and BW as measured at baseline (day −4). Thus, on day −3, the 66 mice were selected based on the pre-screen and baseline measurements into 6 study groups of 11 mice (3-4 mice/cage).
# (§1) All mice were mock treated for at 3 days (BID, SC, 100 μl vehicle) to acclimatize the animals to handling and injections. Dosing (day 0, mice at age 12 weeks as in pilot study) started in the afternoon on that day, and the mice were treated twice daily with 2 SC injections according to Table 1 for a total of 21 days (4 injections per day). Thus, last day of dosing was day 21 in the morning. The daily injections took place between 7:00 and 8:00 and between 14:00 and 15:00 with fresh solutions prepared in the morning (only Compound X). […]
# Dosing solutions of Compound X for the weekend were prepared the Friday before. […] Throughout the study (day −2 to day 21) body weights (8W) were recorded daily and used to administer the body weight-corrected doses of substances. Food and water intake (FI, WI) was measured every day (day −3 to day 21) as cage averages.
# In Vivo: female db/db mice aged 10-11 weeks were treated for 21 days with bi-daily s.c. injections. […] Fasting blood glucose (BG) was measured before and after 21 days of treatment.
# [2] = system: db/db (BKS.Cg-m+/+Lepr^db/J) female mice; test: 21-day s.c. treatment of db/db mice: fasting blood glucose (delta-BG); format: in vivo; conditions: fasted female db/db mice, over 21 days of bi-daily s.c. treatment; Lantus 3 U, Levemir 6 U, Compound X 10 nmol/kg; average +/- SEM (FIG. 4)
# Procedure: as §1, with “X). Insulin was kept in the refrigerator.” for “X).”
# On day 21 (before termination) in 8 h fasted mice a blood sample (350 μl) was taken, and BG, HbA1c, and p-insulin were measured as described above. […]
# The whole blood glucose level was analyzed on tail-blood samples by the immobilized glucose oxidase method (Elite Auto analyser, Bayer, Denmark) following the manufacturer's protocol. Blood samples (sample size 30 μl) were analyzed for HbA1c using the Cobas c111 analyzer (Roche Diagnostics, Mannheim, Germany) in single determinations by Department of Molecular Pharmacology. Plasma (sample size 5 μl) and insulin content was measured using an insulin alpha-LISA assay in triplicate by Department of Molecular Pharmacology. A measure of peptide exposure in plasma (sample size 100 μl) will be determined by the Department of Bioanalysis and Pharmacokinetics. […]
Substance,body weight (BW) change [1],delta-BG (delta-Blood Glucose) [2]
Insulin detemir [Levemir],significant increase,-2.1 ± 1.6 mM
Insulin glargine [Lantus],significant increase,-9.6 ± 1.9 mM
"H-H-Aib-QGTFTSDYSKYLDS-K(Hexadecanoyl-isoGlu)-AAHDFVEWLLSA-NH2 (H-H[Aib]QGTFTSDYSKYLDSK([γGlu-Palmitoyl])AAHDFVEWLLSA-NH2; SMILES CCCCCCCCCCCCCCCC(=O)N[C@@H](CCC(=O)NCCCC[C@H](NC(=O)[C@H](CO)NC(=O)[C@H](CC(=O)O)NC(=O)[C@H](CC(C)C)NC(=O)[C@H](Cc1ccc(O)cc1)NC(=O)[C@H](CCCCN)NC(=O)[C@H](CO)NC(=O)[C@H](Cc1ccc(O)cc1)NC(=O)[C@H](CC(=O)O)NC(=O)[C@H](CO)NC(=O)[C@@H](NC(=O)[C@H](Cc1ccccc1)NC(=O)[C@@H](NC(=O)CNC(=O)[C@H](CCC(N)=O)NC(=O)C(C)(C)NC(=O)[C@@H](N)Cc1c[nH]cn1)[C@@H](C)O)[C@@H](C)O)C(=O)N[C@@H](C)C(=O)N[C@@H](C)C(=O)N[C@@H](Cc1c[nH]cn1)C(=O)N[C@@H](CC(=O)O)C(=O)N[C@@H](Cc1ccccc1)C(=O)N[C@H](C(=O)N[C@@H](CCC(=O)O)C(=O)N[C@@H](Cc1c[nH]c2ccccc12)C(=O)N[C@@H](CC(C)C)C(=O)N[C@@H](CC(C)C)C(=O)N[C@@H](CO)C(=O)N[C@@H](C)C(N)=O)C(C)C)C(=O)O) [Compound X, acylated glucagon analogue, glucagon-GLP-1 dual agonist]",significant decrease,–
